Source: patent US10150757B2, “Quinazolinone derivatives as PARP inhibitors” (Janssen Pharmaceutica NV, priority 2004, dated 2018)

target: T1, TANK-2 enzyme (Homo sapiens, UniProt Q9H2K2); assay: In vitro scintillation proximity assay (SPA) for TANK-2 inhibitory activity; assay type: biochemical; details: auto-poly(ADP-ribosyl)ation; 96-well plate results if available, otherwise 384-well; read-out: in vitro SPA assay TANK-2 pIC50 (converted)
T1 construct: made in house
T1 sequence (Q9H2K2 1-1166): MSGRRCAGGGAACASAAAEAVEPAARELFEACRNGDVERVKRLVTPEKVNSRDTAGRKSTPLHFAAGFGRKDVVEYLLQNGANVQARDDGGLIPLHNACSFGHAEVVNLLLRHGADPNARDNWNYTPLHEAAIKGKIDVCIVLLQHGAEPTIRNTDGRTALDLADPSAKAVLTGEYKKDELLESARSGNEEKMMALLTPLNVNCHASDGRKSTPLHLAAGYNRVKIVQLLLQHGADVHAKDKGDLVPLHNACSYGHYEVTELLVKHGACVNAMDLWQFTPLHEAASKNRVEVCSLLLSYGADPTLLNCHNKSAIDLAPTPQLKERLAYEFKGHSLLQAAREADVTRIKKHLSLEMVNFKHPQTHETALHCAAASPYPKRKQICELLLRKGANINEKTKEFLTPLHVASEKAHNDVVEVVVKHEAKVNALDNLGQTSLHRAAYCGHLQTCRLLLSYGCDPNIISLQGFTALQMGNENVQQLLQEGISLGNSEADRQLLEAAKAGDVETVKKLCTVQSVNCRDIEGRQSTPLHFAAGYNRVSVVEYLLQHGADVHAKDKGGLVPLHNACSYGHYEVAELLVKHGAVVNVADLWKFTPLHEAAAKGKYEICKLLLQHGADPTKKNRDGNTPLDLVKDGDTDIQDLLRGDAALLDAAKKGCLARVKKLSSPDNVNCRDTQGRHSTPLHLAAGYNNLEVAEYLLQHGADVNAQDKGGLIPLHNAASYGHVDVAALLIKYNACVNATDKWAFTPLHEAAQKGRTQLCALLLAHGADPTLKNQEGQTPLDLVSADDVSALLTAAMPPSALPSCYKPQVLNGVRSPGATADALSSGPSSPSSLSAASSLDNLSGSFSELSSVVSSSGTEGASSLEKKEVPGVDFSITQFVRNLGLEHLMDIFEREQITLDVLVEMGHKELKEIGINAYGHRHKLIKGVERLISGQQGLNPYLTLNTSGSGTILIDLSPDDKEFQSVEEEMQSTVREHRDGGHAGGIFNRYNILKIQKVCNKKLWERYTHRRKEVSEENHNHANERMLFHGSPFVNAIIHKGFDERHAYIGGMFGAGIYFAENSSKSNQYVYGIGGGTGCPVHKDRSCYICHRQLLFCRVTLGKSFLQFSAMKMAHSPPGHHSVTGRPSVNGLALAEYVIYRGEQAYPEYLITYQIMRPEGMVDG
Protocol: In Vitro Scintillation Proximity Assay (SPA) for TANK-2 Inhibitory Activity
Compounds of the present invention were tested in an in vitro assay based on SPA technology with Ni Flash plates (96 or 384 well).
In principle, the assay relies upon SPA technology for the detection of auto-poly(ADP-ribosyl)ation of TANK-2 protein using [^3H]-nicotinamide adenine dinucleotide ([^3H]-NAD^+) as ADP-ribosyl donor.
A stock solution of [^3H]-NAD^+/NAD was made by adding 64.6 μl of [^3H]-NAD^+ (0.1 mCi/ml, supplier: Perkin Elmer) and 46.7 μl NAD-stock (10.7 mM, stored at −20° C., supplier Roche) to 1888.7 μl assay buffer (60 mM Tris/HCl, pH 7.4; 0.9 mM DTT; 6 mM MgCl2). The TANK-2 enzyme was produced as described in EP1238063. 60 μl of assay buffer, together with 1 μl of compound in DMSO, 20 μl of [^3H]-NAD^+/NAD and 20 μl of TANK-2 enzyme (final concentration 6 μg/ml) was added per well into a 96-well Ni-coated flash plate (Perkin Elmer). After incubation of the mixture for 120 min. at room temperature, the reaction was terminated by adding 60 μl of stop solution (42.6 mg NAD in 6 ml H2O). The plates were covered with a plate sealer and placed in a TopCountNXT™ (Packard) for scintillation counting. Values were expressed as counts per minute (cpm). For each experiment, controls (containing TANK-2 enzyme and DMSO without compound), a blank incubation (containing DMSO but no TANK-2 enzyme or compound) and samples (containing TANK-2 enzyme and compound dissolved in DMSO) were run in parallel. All compounds tested were dissolved and eventually further diluted in DMSO. In first instance, compounds were tested at a concentration of 10^−5M. […] In each test, the blank value was subtracted from both the control and the sample values. The control sample represented maximal TANK-2 enzyme activity. For each sample, the amount of cpm was expressed as a percentage of the mean cpm value of the controls. When appropriate, IC50-values (concentration of the drug, needed to reduce the TANK-2 enzyme activity to 50% of the control) were computed using linear interpolation between the experimental points just above and below the 50% level. Herein the effects of test compounds are expressed as pIC50 (the negative log value of the IC50-value). As reference compounds, 3-aminobenzamide and 4-amino-1,8-naphthalimide were included to validate the SPA assay. Herein the assay was described using 96-well plates. In the assay using 384-well plates the same final concentrations were used and volumes were adapted.

`O=c1[nH]c(NCCN2CCN(c3n[nH]c4ccccc34)CC2)nc2ccc(Cl)cc12` [Compound 1] and `O=c1[nH]c(NCCN2CCN(c3n[nH]c4ccccc34)CC2)nc2cc(Cl)ccc12` [Compound 44] cannot be ordered by IC50: over 10 µM for the first, over 10 µM for the second.

Compared with `O=c1[nH]c(NCCCN2CCC(O)(c3ccc(Cl)cc3)CC2)nc2ccccc12` [Compound 2], `O=c1[nH]c(NCCCN2CCN(c3n[nH]c4ccccc34)CC2)nc2ccccc12` [Compound 22] is lower in IC50: over 10 µM for the first, 8.45 µM for the second.

Compared with `CCc1cc2cc(CN3CCN(CCNc4nc5ccccc5c(=O)[nH]4)CC3)ccc2nc1OC` [Compound 3], `O=c1[nH]c(NCCN2CCN(c3nc4ccccc4c(=O)[nH]3)CC2)nc2ccccc12` [Compound 38] is 3.3-fold lower in IC50: 1.77 µM for the first, 0.537 µM for the second.

`CC1(C)Cc2c(N)c(Cl)cc(C(=O)NC3CCN(CCCNc4nc(O)c5ccccc5n4)CC3)c2O1` [Compound 4] and `CC1(C)Cc2c(N)c(Cl)cc(C(=O)NC3CCN(CCCCNc4nc(O)c5ccccc5n4)CC3)c2O1` [Compound 5] cannot be ordered by IC50: over 10 µM for the first, over 10 µM for the second.

`CO[C@@H]1CN(CCCNc2nc(O)c3ccccc3n2)CC[C@@H]1NC(=O)c1cc(Cl)c(N)c2c1OCCC2` [Compound 6] and `Nc1c(Cl)cc(C(=O)NC2CCN(CCCNc3nc(O)c4ccccc4n3)CC2)c2c1CCO2` [Compound 45] cannot be ordered by IC50: over 10 µM for the first, over 10 µM for the second.

Going from `Nc1c(Cl)cc(C(=O)OCC2CCN(CCNc3nc4ccccc4c(=O)[nH]3)CC2)c2c1OCCO2` [Compound 7] to `O=C(c1ccc(F)cc1)C1CCN(CCNc2nc3ccccc3c(=O)[nH]2)CC1` [Compound 46], the IC50 rises from 0.746 µM to over 10 µM.

`CO[C@@H]1CN(CCCNc2nc(O)c3ccccc3n2)CCN1NC(=O)c1cc(Cl)c(N)c2c1OC(C)(C)C2` [Compound 8] and `CO[C@H]1CN(CCCNc2nc3ccccc3c(=O)[nH]2)CC[C@H]1NC(=O)c1cc(Cl)cc2c1OC(C)(C)C2` [Compound 18] cannot be ordered by IC50: over 10 µM for the first, over 10 µM for the second.

`O=c1[nH]c(NCCCN2CCC(c3c[nH]c4ccccc34)CC2)nc2ccccc12` [Compound 20] and `CCCCn1cc(C2CCN(CCCNc3nc4ccccc4c(=O)[nH]3)CC2)c2ccccc21` [Compound 28] cannot be ordered by IC50: over 10 µM for the first, over 10 µM for the second.

`O=c1[nH]c(NCCN2CCC(c3n[nH]c4cc(F)ccc34)CC2)nc2ccccc12` [Compound 21] and `O=c1[nH]c(NCCCN2CCC(c3n[nH]c4cc(F)ccc34)CC2)nc2ccccc12` [Compound 25] cannot be ordered by IC50: over 10 µM for the first, over 10 µM for the second.

`O=C(NC1CCN(CCCNc2nc3ccccc3c(=O)[nH]2)CC1)c1ccccc1` [Compound 23] and `O=c1[nH]c(NCCCN2CCC(Nc3cccc4ccccc34)CC2)nc2ccccc12` [Compound 42] cannot be ordered by IC50: over 10 µM for the first, over 10 µM for the second.

Compared with `O=c1[nH]c(NCCCN2CCN(c3nsc4ccccc34)CC2)nc2ccccc12` [Compound 24], `O=c1[nH]c(NCCCN2CCN(c3n[nH]c4cc(F)ccc34)CC2)nc2ccccc12` [Compound 27] is lower in IC50: over 10 µM for the first, 7.96 µM for the second.

`O=c1[nH]c(NCCCN2CCC(c3noc4cc(F)ccc34)CC2)nc2ccccc12` [Compound 26] and `O=c1[nH]c(NCCN2CCC(c3n[nH]c4cc(F)ccc34)CC2)nc2cc(Cl)ccc12` [Compound 31] cannot be ordered by IC50: over 10 µM for the first, over 10 µM for the second.

Going from `O=c1[nH]c(NCCCN2CCC(n3c(=O)[nH]c4ccccc43)CC2)nc2ccccc12` [Compound 29] to `O=c1[nH]c(NCCN2CCC(Nc3nc4ccccc4c(=O)[nH]3)CC2)nc2ccccc12` [Compound 30], the IC50 falls from over 10 µM to 0.794 µM.

Compared with `O=c1[nH]c(NCCN2CCC(Nc3n[nH]c(=O)c4ccccc34)CC2)nc2ccccc12` [Compound 33], `O=c1nc(NCCCN2CCC(Nc3nccc4ccccc34)CC2)[nH]c2ccccc12` [Compound 40] is higher in IC50: 0.938 µM for the first, over 10 µM for the second.

`O=c1[nH]c(NCCN2CCC(c3n[nH]c4cc(F)ccc34)CC2)nc2ccc(Cl)cc12` [Compound 36] and `Cc1ccc2nc(NCCN3CCC(c4n[nH]c5cc(F)ccc45)CC3)[nH]c(=O)c2c1` [Compound 37] cannot be ordered by IC50: over 10 µM for the first, over 10 µM for the second.

`Cc1cccc2nc(NCCN3CCN(c4n[nH]c5ccccc45)CC3)[nH]c(=O)c12` [Compound 39] and `Cc1ccc2nc(NCCN3CCN(c4n[nH]c5ccccc45)CC3)[nH]c(=O)c2c1` [Compound 43] cannot be ordered by IC50: over 10 µM for the first, over 10 µM for the second.

In the case of `O=c1[nH]c(NCCN2CCN(c3n[nH]c4cc(F)ccc34)CC2)nc2ccccc12` [Compound 41], the IC50 was over 10 µM.
